# ChEMBL document CHEMBL3885881, “DrugMatrix”
# Species on record: Rattus norvegicus
# Assay: DrugMatrix - Regimen: Daily Repeat
# Assay type: toxicity, organism-based, Sprague-Dawley
# Parameters: regimen Daily Repeat, gender Male, age 6-8 weeks
# Conditions: in vivo, po, route oral GAVAGE, vehicle .5 % CMC; for BASOPHIL / EOSINOPHIL / ERYTHROCYTE COUNT / HEMATOCRIT / HEMOGLOBIN / LEUKOCYTE COUNT / LYMPHOCYTE / MEAN CORPUSCULAR HEMOGLOBIN / MEAN CORPUSCULAR HEMOGLOBIN CONCENTRATION / MEAN CORPUSCULAR VOLUME / MONOCYTE / NEUTROPHIL / PLATELET COUNT: tissue Blood; for ALANINE AMINOTRANSFERASE / ALBUMIN / ALKALINE PHOSPHATASE / ASPARTATE AMINOTRANSFERASE / BLOOD UREA NITROGEN / CARBON DIOXIDE / CHLORIDE / CHOLESTEROL / CREATINE PHOSPHOKINASE / CREATININE / GLUCOSE / LACTATE DEHYDROGENASE / LIPASE / PHOSPHORUS / POTASSIUM / SODIUM / TOTAL BILIRUBIN / TOTAL PROTEIN / URIC ACID: tissue Plasma
# [1] = 0 mg/kg, 72 h, dose level Control, time 3 day
# [2] = 0 mg/kg, 120 h, dose level Control, time 5 day
# [3] = 47 mg/kg, 72 h, dose level Low, time 3 day
# [4] = 47 mg/kg, 120 h, dose level Low, time 5 day
# [5] = 1200 mg/kg, 72 h, dose level High, time 3 day
# [6] = 1200 mg/kg, 120 h, dose level High, time 5 day
structure (smiles),measurement,setting,value
Nc1ccn([C@H]2CC[C@@H](CO)O2)c(=O)n1 [ZALCITABINE],BASOPHIL,[1],0.17%
same,EOSINOPHIL,[1],0.83%
same,ERYTHROCYTE COUNT,[1],7.2 x10E6/uL
same,HEMATOCRIT,[1],43.13%
same,HEMOGLOBIN,[1],14.63 G/DL
same,LEUKOCYTE COUNT,[1],9.05 x10E3/uL
same,LYMPHOCYTE,[1],75.17%
same,MEAN CORPUSCULAR HEMOGLOBIN,[1],20.35 pg
same,MEAN CORPUSCULAR HEMOGLOBIN CONCENTRATION,[1],33.95 G/DL
same,MEAN CORPUSCULAR VOLUME,[1],59.93 fL
same,MONOCYTE,[1],2.83%
same,NEUTROPHIL,[1],21.17%
same,PLATELET COUNT,[1],1093.17 x10E3/uL
same,ALANINE AMINOTRANSFERASE,[1],49.17 u/L
same,ALBUMIN,[1],4.33 G/DL
same,ALKALINE PHOSPHATASE,[1],366.5 u/L
same,ASPARTATE AMINOTRANSFERASE,[1],86.33 u/L
same,BLOOD UREA NITROGEN,[1],17 mg/dL
same,CARBON DIOXIDE,[1],24.17 mmol/L
same,CHLORIDE,[1],102.83 MEQ/L
same,CHOLESTEROL,[1],78.33 mg/dL
same,CREATINE PHOSPHOKINASE,[1],320.83 u/L
same,CREATININE,[1],0.3 mg/dL
same,GLUCOSE,[1],140.83 mg/dL
same,LACTATE DEHYDROGENASE,[1],210 u/L
same,LIPASE,[1],9.33 u/L
same,PHOSPHORUS,[1],9.12 mg/dL
same,POTASSIUM,[1],5.65 MEQ/L
same,SODIUM,[1],144.17 MEQ/L
same,TOTAL BILIRUBIN,[1],0.1 mg/dL
same,TOTAL PROTEIN,[1],6.3 G/DL
same,URIC ACID,[1],1.03 mg/dL
same,BASOPHIL,[2],0.17%
same,EOSINOPHIL,[2],1%
same,ERYTHROCYTE COUNT,[2],7.02 x10E6/uL
same,HEMATOCRIT,[2],43.12%
same,HEMOGLOBIN,[2],14.18 G/DL
same,LEUKOCYTE COUNT,[2],9.63 x10E3/uL
same,LYMPHOCYTE,[2],72%
same,MEAN CORPUSCULAR HEMOGLOBIN,[2],20.25 pg
same,MEAN CORPUSCULAR HEMOGLOBIN CONCENTRATION,[2],32.95 G/DL
same,MEAN CORPUSCULAR VOLUME,[2],61.43 fL
same,MONOCYTE,[2],2.67%
same,NEUTROPHIL,[2],24.5%
same,PLATELET COUNT,[2],1028.5 x10E3/uL
same,ALANINE AMINOTRANSFERASE,[2],42.5 u/L
same,ALBUMIN,[2],4.2 G/DL
same,ALKALINE PHOSPHATASE,[2],300.33 u/L
same,ASPARTATE AMINOTRANSFERASE,[2],87.67 u/L
same,BLOOD UREA NITROGEN,[2],17 mg/dL
same,CARBON DIOXIDE,[2],24.33 mmol/L
same,CHLORIDE,[2],99 MEQ/L
same,CHOLESTEROL,[2],70.67 mg/dL
same,CREATINE PHOSPHOKINASE,[2],891.33 u/L
same,CREATININE,[2],0.3 mg/dL
same,GLUCOSE,[2],139.67 mg/dL
same,LACTATE DEHYDROGENASE,[2],289.83 u/L
same,LIPASE,[2],8.83 u/L
same,PHOSPHORUS,[2],9.5 mg/dL
same,POTASSIUM,[2],5.55 MEQ/L
same,SODIUM,[2],139 MEQ/L
same,TOTAL BILIRUBIN,[2],0.0833 mg/dL
same,TOTAL PROTEIN,[2],6.1 G/DL
same,URIC ACID,[2],0.98 mg/dL
same,BASOPHIL,[3],0.33%
same,EOSINOPHIL,[3],1.67%
same,ERYTHROCYTE COUNT,[3],7.03 x10E6/uL
same,HEMATOCRIT,[3],42.67%
same,HEMOGLOBIN,[3],14.33 G/DL
same,LEUKOCYTE COUNT,[3],10.43 x10E3/uL
same,LYMPHOCYTE,[3],70.67%
same,MEAN CORPUSCULAR HEMOGLOBIN,[3],20.4 pg
same,MEAN CORPUSCULAR HEMOGLOBIN CONCENTRATION,[3],33.57 G/DL
same,MEAN CORPUSCULAR VOLUME,[3],60.7 fL
same,MONOCYTE,[3],2.33%
same,NEUTROPHIL,[3],25%
same,PLATELET COUNT,[3],1049.33 x10E3/uL
same,ALANINE AMINOTRANSFERASE,[3],49.33 u/L
same,ALBUMIN,[3],4.27 G/DL
same,ALKALINE PHOSPHATASE,[3],380.5 u/L
same,ASPARTATE AMINOTRANSFERASE,[3],78.67 u/L
same,BLOOD UREA NITROGEN,[3],18.33 mg/dL
same,CARBON DIOXIDE,[3],22.33 mmol/L
same,CHLORIDE,[3],101 MEQ/L
same,CHOLESTEROL,[3],74.67 mg/dL
same,CREATINE PHOSPHOKINASE,[3],442.33 u/L
same,CREATININE,[3],0.27 mg/dL
same,GLUCOSE,[3],147 mg/dL
same,LACTATE DEHYDROGENASE,[3],216.67 u/L
same,LIPASE,[3],9 u/L
same,PHOSPHORUS,[3],9.3 mg/dL
same,POTASSIUM,[3],5.95 MEQ/L
same,SODIUM,[3],143.67 MEQ/L
same,TOTAL BILIRUBIN,[3],0.1 mg/dL
same,TOTAL PROTEIN,[3],6.27 G/DL
same,URIC ACID,[3],0.87 mg/dL
same,BASOPHIL,[4],0.33%
same,EOSINOPHIL,[4],1%
same,ERYTHROCYTE COUNT,[4],7.41 x10E6/uL
same,HEMATOCRIT,[4],44.03%
same,HEMOGLOBIN,[4],14.73 G/DL
same,LEUKOCYTE COUNT,[4],11.23 x10E3/uL
same,LYMPHOCYTE,[4],81.67%
same,MEAN CORPUSCULAR HEMOGLOBIN,[4],19.83 pg
same,MEAN CORPUSCULAR HEMOGLOBIN CONCENTRATION,[4],33.4 G/DL
same,MEAN CORPUSCULAR VOLUME,[4],59.43 fL
same,MONOCYTE,[4],2.33%
same,NEUTROPHIL,[4],15.67%
same,PLATELET COUNT,[4],1184 x10E3/uL
same,ALANINE AMINOTRANSFERASE,[4],46 u/L
same,ALBUMIN,[4],4.43 G/DL
same,ALKALINE PHOSPHATASE,[4],323 u/L
same,ASPARTATE AMINOTRANSFERASE,[4],95.67 u/L
same,BLOOD UREA NITROGEN,[4],15.67 mg/dL
same,CARBON DIOXIDE,[4],22.33 mmol/L
same,CHLORIDE,[4],98.33 MEQ/L
same,CHOLESTEROL,[4],68 mg/dL
same,CREATINE PHOSPHOKINASE,[4],672 u/L
same,CREATININE,[4],0.3 mg/dL
same,GLUCOSE,[4],129 mg/dL
same,LACTATE DEHYDROGENASE,[4],673.67 u/L
same,LIPASE,[4],8.67 u/L
same,PHOSPHORUS,[4],9.57 mg/dL
same,POTASSIUM,[4],5.77 MEQ/L
same,SODIUM,[4],140.67 MEQ/L
same,TOTAL BILIRUBIN,[4],0.1 mg/dL
same,TOTAL PROTEIN,[4],6.4 G/DL
same,URIC ACID,[4],1.23 mg/dL
same,BASOPHIL,[5],0.33%
same,EOSINOPHIL,[5],1%
same,ERYTHROCYTE COUNT,[5],7.16 x10E6/uL
same,HEMATOCRIT,[5],42.4%
same,HEMOGLOBIN,[5],14.27 G/DL
same,LEUKOCYTE COUNT,[5],9.77 x10E3/uL
same,LYMPHOCYTE,[5],80.33%
same,MEAN CORPUSCULAR HEMOGLOBIN,[5],20 pg
same,MEAN CORPUSCULAR HEMOGLOBIN CONCENTRATION,[5],33.73 G/DL
same,MEAN CORPUSCULAR VOLUME,[5],59.27 fL
same,MONOCYTE,[5],2.33%
same,NEUTROPHIL,[5],16.33%
same,PLATELET COUNT,[5],1274 x10E3/uL
same,ALANINE AMINOTRANSFERASE,[5],63.67 u/L
same,ALBUMIN,[5],4.3 G/DL
same,ALKALINE PHOSPHATASE,[5],291.67 u/L
same,ASPARTATE AMINOTRANSFERASE,[5],78 u/L
same,BLOOD UREA NITROGEN,[5],15.33 mg/dL
same,CARBON DIOXIDE,[5],22.67 mmol/L
same,CHLORIDE,[5],103.67 MEQ/L
same,CHOLESTEROL,[5],79 mg/dL
same,CREATINE PHOSPHOKINASE,[5],509 u/L
same,CREATININE,[5],0.3 mg/dL
same,GLUCOSE,[5],141.33 mg/dL
same,LACTATE DEHYDROGENASE,[5],255.33 u/L
same,LIPASE,[5],9.33 u/L
same,PHOSPHORUS,[5],10.23 mg/dL
same,POTASSIUM,[5],5.83 MEQ/L
same,SODIUM,[5],146.33 MEQ/L
same,TOTAL BILIRUBIN,[5],0.1 mg/dL
same,TOTAL PROTEIN,[5],6.17 G/DL
same,URIC ACID,[5],1.33 mg/dL
same,BASOPHIL,[6],0%
same,EOSINOPHIL,[6],0.67%
same,ERYTHROCYTE COUNT,[6],7.45 x10E6/uL
same,HEMATOCRIT,[6],45%
same,HEMOGLOBIN,[6],15 G/DL
same,LEUKOCYTE COUNT,[6],9.43 x10E3/uL
same,LYMPHOCYTE,[6],80%
same,MEAN CORPUSCULAR HEMOGLOBIN,[6],20.1 pg
same,MEAN CORPUSCULAR HEMOGLOBIN CONCENTRATION,[6],33.37 G/DL
same,MEAN CORPUSCULAR VOLUME,[6],60.37 fL
same,MONOCYTE,[6],2.33%
same,NEUTROPHIL,[6],16.33%
same,PLATELET COUNT,[6],957.67 x10E3/uL
same,ALANINE AMINOTRANSFERASE,[6],49.33 u/L
same,ALBUMIN,[6],4.1 G/DL
same,ALKALINE PHOSPHATASE,[6],291.67 u/L
same,ASPARTATE AMINOTRANSFERASE,[6],101.33 u/L
same,BLOOD UREA NITROGEN,[6],15.33 mg/dL
same,CARBON DIOXIDE,[6],22.67 mmol/L
same,CHLORIDE,[6],99.67 MEQ/L
same,CHOLESTEROL,[6],63.33 mg/dL
same,CREATINE PHOSPHOKINASE,[6],865 u/L
same,CREATININE,[6],0.3 mg/dL
same,GLUCOSE,[6],138 mg/dL
same,LACTATE DEHYDROGENASE,[6],744.67 u/L
same,LIPASE,[6],8.33 u/L
same,PHOSPHORUS,[6],9.43 mg/dL
same,POTASSIUM,[6],5.67 MEQ/L
same,SODIUM,[6],141 MEQ/L
same,TOTAL BILIRUBIN,[6],0.1 mg/dL
same,TOTAL PROTEIN,[6],6.23 G/DL
same,URIC ACID,[6],0.9 mg/dL
